For test [1], the system named is adult male ICR mice. Kind of test: 55° C. warm water tail-flick test (antinociception). The class given is in vivo, mouse. The note with it: for A50 i.c.v. / A50 i.v.: mouse 55° C. tail-flick, time of peak effect; for A50 i.c.v.: i.c.v. administration; for A50 i.v.: i.v. administration. The procedure:
All in vivo studies used adult male ICR mice (25-30 g; Harlan Industries, Cleveland, Ohio, USA) that were maintained on a 12 h light/dark cycle (lights on at 07:00 hours) in a temperature and humidity-controlled animal colony. All testing was carried out between 10:00 and 15:00 hours. Studies were carried out in accordance with the Guide for the Care and Use of Laboratory Animals as adopted and promulgated by the National Institutes of Health.
For intracerebroventricular (i.c.v.) injections, mice were lightly anesthetized with ether and an incision was made in the scalp. Injections were performed using a 10 μL Hamilton microsyringe (Hamilton Company, Reno, Nev., USA) at a point 2 mm caudal and 2 mm lateral from bregma. Compounds were injected at a depth of 3 mm in a volume of 5 μL. Intravenous (i.v.) injections were performed by restraining the mouse in a Plexiglas holder, dipping the tail for 10 seconds in 40° C. warm water to dilate the tail vein, and subsequent injection into the vein with a 30-gauge needle. All compounds were dissolved in distilled water (i.c.v. injections) or physiologic saline (i.v. injections).
Antinociception was assessed using the 55° C. warm water tail-flick test. The latency to the first sign of a rapid tail-flick was taken as the behavioral end-point. Each mouse was first tested for baseline latency by immersing its tail in the water and recording the time to response. Mice not responding within 5 seconds were excluded from further testing (average latency=2.1 seconds). Mice were then administered the test compound and tested for antinociception at 10, 20, 30, 45, 60, 90, 120 and 180 min postinjection. A maximum score was assigned (100%) to animals not responding within 10 seconds. Antinociception was calculated by the following formula: % antinociception=100·(test latency ) control latency)/(10 ) control latency). Dose-response lines were constructed at times of peak agonist effect, and analyzed by linear regression using […] software (17). All A50 values (95% confidence limits) shown were calculated from the linear portion of the dose-response curve. A minimum of three doses/curve and 8-10 mice were used at each dose level.

Test [2] deals with T1, human Δ-opioid receptor (DOR) (Homo sapiens, UniProt P41143).
T1 construct: expressed in transfected cells; host or cells: Chinese hamster ovary (CHO) cells
The test is described as follows: biochemical. The class given is binding.

The target of test [3] is T2, human μ-opioid receptor (MOR) (Homo sapiens, UniProt P35372).
T2 construct: expressed in transfected cells; host or cells: Chinese hamster ovary (CHO) cells
The test is described as follows: biochemical. The class given is binding.

In test [4] the target is human δ-opioid receptor (human) (UniProt P41143). Kind of test: radioligand competition against [3H]naltrindole, CHO cell membranes expressing human DOR. A general note: Displacement assays read how much labelled ligand stays bound in the presence of the test substance.
Test [5] shares this target. Kind of test: ratio of Ki values from radioligand competition, reference MOR.
Test [6] deals with T3, human κ-opioid receptor (human, UniProt P41145 1-380).
T3 construct: whole, on cells; Assayed as membranes of CHO cells expressing the receptor; also called KOR
Kind of test: radioligand competition against [3H]U69,593, CHO cell membranes expressing human KOR. The procedure: (§1) Binding was determined in Chinese hamster ovary (CHO) cell membranes expressing either the human μ-, Δ-, or κ-opioid receptors (MOR, DOR, and KOR). Cells were incubated with 12 concentrations of glycopeptide and the indicated radiolabeled ligand (Table 1, below). Non-specific binding was measured by inclusion of 10 μM naloxone. Data are the mean Kᵢ values±SEM from three experiments performed in triplicate.

Test [7] has as its target T3, human κ-opioid receptor. The test is described as follows: ratio of Ki values from radioligand competition, reference MOR. The procedure:
as §1

Test [8] has as its target T4, human µ-opioid receptor (human, UniProt P35372 1-400).
T4 construct: whole, on cells; Assayed as membranes of CHO cells expressing the receptor; also called MOR; mu opioid receptor
Kind of test: radioligand competition against [3H]DAMGO, CHO cell membranes expressing human MOR. The procedure: as §1

Non-standard residues stand in square brackets, D forms with d. Residues, ends and D or L forms follow the SMILES beside them. No end group written: not given here. *: point of attachment. β‑lactoside = OC[C@H]1O[C@@H](O[C@H]2[C@H](O)[C@@H](O)[C@H](*)O[C@@H]2CO)[C@H](O)[C@@H](O)[C@H]1O; X2 = OC[C@H]1O[C@@H](O[C@H]2[C@H](O)[C@@H](O)[C@H](*)O[C@@H]2CO)[C@H](O)[C@@H](O)[C@H]1O; βGlc = OC[C@H]1O[C@@H](*)[C@H](O)[C@@H](O)[C@@H]1O; β‑D‑xyloside = O[C@@H]1[C@@H](O)[C@H](*)OC[C@H]1O; X1 = O[C@@H]1[C@@H](O)[C@H](*)OC[C@H]1O; NMeF = CN[C@@H](Cc1ccccc1)C(=O)O

In test [1], `C[C@@H](NC(=O)[C@@H](N)Cc1ccc(O)cc1)C(=O)NCC(=O)N(C)[C@@H](Cc1ccccc1)C(=O)N[C@@H](CO)C(N)=O` [Compound 2] (HELM PEPTIDE1{Y.[dA].G.[meF].S.[am]}$$$$V2.0; N-terminus assumed) showed an A50 i.c.v. of 2.0 pmol per mouse and an A50 i.v. of 0.20 µmol/kg. In addition, the affinity in test [2] corresponds to a Ki of 600 ± 44 nM.
In test [1], `C[C@@H](NC(=O)[C@@H](N)Cc1ccc(O)cc1)C(=O)NCC(=O)N(C)[C@@H](Cc1ccccc1)C(=O)N[C@@H](CO[C@@H]1OC[C@@H](O)[C@H](O)[C@H]1O)C(N)=O` [Compound 3] (H-Y[dA]G[NMeF]S(X1)-NH2; N-terminus assumed) returned an A50 i.c.v. of 2.0 pmol per mouse and an A50 i.v. of 0.27 µmol/kg. Further, the affinity in test [3] corresponds to a Ki of 1.3 ± 0.16 nM. The same molecule displayed a Ki in test [2] of 730 ± 66 nM.
As for `C[C@@H](NC(=O)[C@@H](N)Cc1ccc(O)cc1)C(=O)NCC(=O)N(C)[C@@H](Cc1ccccc1)C(=O)N[C@@H](CO[C@@H]1O[C@H](CO)[C@@H](O)[C@H](O)[C@H]1O)C(N)=O` [Compound 4] (H-Y[dA]G[NMeF]S(βGlc)-NH2; N-terminus assumed), in test [1] (after i.c.v. administration, tail-flick), the duration of action is > 180 min. This molecule also gave an A50 i.c.v. in test [1] of 19 pmol per mouse. The A50 i.v. in test [1] came out at 0.72 µmol/kg. Also, the figures for the Ki in test [3] and in test [2] were 1.3 ± 0.09 nM and > 5000 nM, respectively.
For the molecule `C[C@@H](NC(=O)[C@@H](N)Cc1ccc(O)cc1)C(=O)NCC(=O)N(C)[C@@H](Cc1ccccc1)C(=O)N[C@@H](CO[C@@H]1O[C@H](CO)[C@@H](O[C@@H]2O[C@H](CO)[C@H](O)[C@H](O)[C@H]2O)[C@H](O)[C@H]1O)C(N)=O` [Compound 5] (H-Y[dA]G[NMeF]S(X2)-NH2; N-terminus assumed), in test [1], the A50 i.c.v. is reported as 2.0 pmol per mouse and the A50 i.v. was determined as 1.15 µmol/kg. The affinity in test [2], expressed as Ki, was 1600 ± 129 nM.
In test [1], `C[C@@H](NC(=O)[C@@H](N)Cc1ccc(O)cc1)C(=O)NCC(=O)N(C)[C@@H](Cc1ccccc1)C(=O)NCCO` [DAMGO 1, [D-Ala^2,Me-Phe^4Gly^5(ol)]enkephalin, reference compound] registered an A50 i.c.v. of 30 pmol per mouse and an A50 i.v. of 1.88 µmol/kg.
With `CN1CC[C@]23c4c5ccc(O)c4O[C@H]2[C@@H](O)C=C[C@H]3[C@H]1C5` [Morphine, reference compound], the A50 i.v. in test [1] was 7.84 µmol/kg.
“DAMGO [D-Ala^2,Me-Phe^4Gly^5(ol)]enkephalin (peptide)” had a Ki in test [4] of 990 nM. In addition, the Ratio µ:δ:κ (Ki at δ relative to µ) in test [5] stood at 1900.

B1: DAMGO analog compound (4), C-terminal L-serine amide beta-D-glucoside (peptide)
peptide: Y[dA]G[NMeF]S(βGlc)-NH2
modifications: N-terminus assumed
SMILES: C[C@@H](NC(=O)[C@@H](N)Cc1ccc(O)cc1)C(=O)NCC(=O)N(C)[C@@H](Cc1ccccc1)C(=O)N[C@@H](CO[C@@H]1O[C@H](CO)[C@@H](O)[C@H](O)[C@H]1O)C(N)=O
notes: Glycopeptide; also called glycopeptide 4
B1 returned a Ki in test [6] of 170 nM. Also, in test [7], the “Ratio µ:δ:κ (Ki at κ relative to µ)” value was determined as 130. The Ratio µ:δ:κ (Ki at δ relative to µ) in test [5] was determined as 3800.

B2: DAMGO analog compound (5), C-terminal L-serine amide beta-lactoside (peptide)
peptide: Y[dA]G[NMeF]S(β‑lactoside)-NH2
modifications: N-terminus assumed
SMILES: C[C@@H](NC(=O)[C@@H](N)Cc1ccc(O)cc1)C(=O)NCC(=O)N(C)[C@@H](Cc1ccccc1)C(=O)N[C@@H](CO[C@@H]1O[C@H](CO)[C@@H](O[C@@H]2O[C@H](CO)[C@H](O)[C@H](O)[C@H]2O)[C@H](O)[C@H]1O)C(N)=O
notes: Glycopeptide; also called glycopeptide 5
B2: the Ki in test [6] was 350 nM; in test [8], 0.66 nM. The “Ratio µ:δ:κ (Ki at κ relative to µ)” value in test [7] was 530. Further, in test [5], the Ratio µ:δ:κ (Ki at δ relative to µ) was found to be 2400.

B3: DAMGO analog compound (2), C-terminal L-serine amide (peptide)
peptide: YAGFS
HELM: PEPTIDE1{Y.[dA].G.[meF].S.[am]}$$$$V2.0; N-terminus assumed
SMILES: C[C@@H](NC(=O)[C@@H](N)Cc1ccc(O)cc1)C(=O)NCC(=O)N(C)[C@@H](Cc1ccccc1)C(=O)N[C@@H](CO)C(N)=O
notes: Made by Fmoc synthesis on Rink amide resin; also called peptide 2
For B3, the Ki in test [6] is 190 nM; in test [8], 0.68 nM. For the same molecule, the “Ratio µ:δ:κ (Ki at κ relative to µ)” value in test [7] came out at 280. Also, in test [5], the Ratio µ:δ:κ (Ki at δ relative to µ) was found to be 880.

B4: DAMGO analog compound (3), C-terminal L-serine amide beta-D-xyloside (peptide)
peptide: Y[dA]G[NMeF]S(β‑D‑xyloside)-NH2
modifications: N-terminus assumed
SMILES: C[C@@H](NC(=O)[C@@H](N)Cc1ccc(O)cc1)C(=O)NCC(=O)N(C)[C@@H](Cc1ccccc1)C(=O)N[C@@H](CO[C@@H]1OC[C@@H](O)[C@H](O)[C@H]1O)C(N)=O
notes: Glycopeptide; also called glycopeptide 3
As for B4, the Ki in test [6] turned out to be 160 nM. The “Ratio µ:δ:κ (Ki at κ relative to µ)” value in test [7] was 120. In addition, the Ratio µ:δ:κ (Ki at δ relative to µ) in test [5] is 560.

The Ki is a dissociation constant, usually derived from enzyme kinetics or from competition with a known ligand.

(Values after patent US20080019913A1 (UNIVERSITY OF ARIZONA OFFICE OF TECHNOLOGY TRANSFER, published 2008).)
